Assay results published in patent US10858384B2, “Synthetic molecule constructs” (KODE BIOTECH LIMITED, priority 2004, dated 2020).

Experiments:
[1] = tested on: RBCs; experiment: Detectable transformation ability of synthetic glycolipids (agglutination); assay type: cell-based; details: agglutination with the appropriate antibody
Excerpt: The synthetic glycolipid must also be able to insert into the membrane and be recognisable to the appropriate antibody for transformation to be detected by agglutination. Initial tests on the molecules were to establish solubility and thus eliminate those molecules that were unsuitable for use in the transformation of cells.

[2] = tested on: group O RBCs; experiment: Diamed agglutination of RBCs transformed at 4° C. with synthetic glycolipids (weak A, B and AB cells); assay type: cell-based, human; details: 0.03 mg/mL, anti-A, time = table row
Experimental: Transformation of RBCs with synthetic glycolipids Atri-sp-Ad-DOPE (I) and Btri-sp-Ad-DOPE (VI) at 4° C. was then evaluated (Tables 25 to 28). These transformations were directed towards the preparation of cells expressing low levels of A, B or A and B glycotopes (“weak A, B and AB cells”).
For the preparation of weak A and B cells transformation solutions (20 μL, Atri-sp-Ad-DOPE (I) at 0.08, 0.05 and 0.03 mg/mL, and Btri-sp-Ad-DOPE (VI) at 0.6, 0.3, 0.15, 0.08, 0.05 and 0.03 mg/mL) in 1× PBS were mixed with washed, packed group O RBCs (60 μL).
For the preparation of weak AB cells transformation solutions (20 μL, Atrii-sp-Ad-DOPE (I) at 0.07, 0.06 and 0.05 mg/mL, and Btri-sp-Ad-DOPE (VI) at 0.3, and 0.2 mg/mL) in 1× PBS were combined in block titre with washed, packed group O RBCs (60 μL). The combinations were: Atri-sp-Ad-DOPE (I) at 0.07 mg/mL+Btri-sp-Ad-DOPE (VI) at 0.3 mg/mL; Atri-sp-Ad-DOPE (I) at 0.07 mg/mL+Btri-sp-Ad-DOPE (VI) at 0.2 mg/mL; Atri-sp-Ad-DOPE (I) at 0.06 mg/mL+Btri-sp-Ad-DOPE (VI) at 0.3 mg/mL; Atri-sp-Ad-DOPE (I) at 0.06 mg/mL+Btri-sp-Ad-DOPE (VI) at 0.2 mg/mL; Atri-sp-Ad-DOPE (I) at 0.05 mg/mL+Btri-sp-Ad-DOPE (VI) at 0.3 mg/mL; and Atri-sp-Ad-DOPE (I) 0.05+Btri-sp-Ad-DOPE (VI) 0.2 mg/mL.
Cells and transformation solutions were placed in a […] fridge. Pipette mixing was performed at intervals. […]

[3] = tested on: group O red blood cells (RBCs); experiment: Diamed gel-card agglutination of group O RBCs transformed at 37° C. with synthetic glycolipids; assay type: cell-based, human; design: scale not given here; details: for Agglutination, Diamed gel-cards, Albaclone anti-A / Agglutination, Diamed gel-cards, Bioclone anti-A: 0.025 mg/mL
Experimental: Washed packed group O red blood cells (RBCs) (3 parts by volume) and the synthetic glycolipid solution (1 part by volume, varying concentrations) were added to an eppendorf tube. The tube was incubated in a 37° C. waterbath for one hour, mixing every 15 minutes. […]
Tube serology and Diamed gel-card results for RBCs transformed with the different synthetic molecule constructs are provided in Table 38. Results for the stability of the RBCs transformed with the different synthetic glycolipids at different concentrations are provided in Tables 39 to 44.

[4] = tested on: endometrial cells and embryos; experiment: Attachment of transformed endometrial cells to modified embryos; assay type: cell-based; details: 15 minutes at 37° C.
Experimental: Modified embryos (BioG-Avidin-BioIgG^B and BioG-Avidin-BioIgM^A) were prepared in accordance with the methods described in the specification accompanying the international application no. PCT/NZ03/00059 (published as WO03/087346).
Two concave glass slides were prepared, one with two wells of synthetic glycolipid Atri-sp-Ad-DOPE (I) inserted endometrial cells and the other with two wells of synthetic glycolipid Btri-sp-Ad-DOPE (VI) inserted endometrial cells.
The embryos were surrounded with endometrial cells. The wells were covered with mineral oil and incubated for 15 minutes at 37° C. Using a wide bore handling pipette each group of embryos were carefully transferred to a fresh drop of M2 media. The embryos were gently washed. The embryos were gently transferred into 2 μL of M2 media on a marked microscope slide. Each drop was overlaid with mineral oil
Under a central plane of focus on an Olympus microscope the number of endometrial cells adhered to the embryos in each group was assessed. The number of cells adhered to each embryo was recorded.

CCCCCCCC/C=C\CCCCCCCC(=O)OC[C@H](COP(=O)(O)OCCNC(=O)CCCCC(=O)NCCCO[C@@H]1O[C@H](CO)[C@H](O)[C@H](O[C@H]2O[C@H](CO)[C@H](O)[C@H](O)[C@H]2NC(C)=O)[C@H]1O[C@@H]1O[C@@H](C)[C@@H](O)[C@@H](O)[C@@H]1O)OC(=O)CCCCCCC/C=C\CCCCCCCC [Atri-sp-Ad-DOPE (I)]
Detectable transformation ability [1]: Yes
Agglutination score ([2]; unwashed): 0
Agglutination score ([2]; washed): 0
Albaclone anti-A, Diamed ([3]; 0.01 mg/mL): 0
Bioclone anti-A, Diamed ([3]; 0.01 mg/mL): 0
Agglutination, Diamed gel-cards, Albaclone anti-A ([3]; Day 2, Alsevers): 0
Agglutination, Diamed gel-cards, Albaclone anti-A ([3]; Day 2, Cellstab): 0
Agglutination, Diamed gel-cards, Albaclone anti-A ([3]; Day 8, Alsevers): 0
Agglutination, Diamed gel-cards, Albaclone anti-A ([3]; Day 8, Cellstab): 0
Agglutination, Diamed gel-cards, Albaclone anti-A ([3]; Day 15, Alsevers): 0
Agglutination, Diamed gel-cards, Albaclone anti-A ([3]; Day 15, Cellstab): 0
Agglutination, Diamed gel-cards, Albaclone anti-A ([3]; Day 22, Alsevers): 0
Agglutination, Diamed gel-cards, Bioclone anti-A ([3]; Day 22, Alsevers): w+
Agglutination, Diamed gel-cards, Albaclone anti-A ([3]; Day 22, Cellstab): 0
Agglutination, Diamed gel-cards, Albaclone anti-A ([3]; Day 29, Alsevers): 0
Agglutination, Diamed gel-cards, Bioclone anti-A ([3]; Day 29, Alsevers): w+
Agglutination, Diamed gel-cards, Albaclone anti-A ([3]; Day 29, Cellstab): 0
Agglutination, Diamed gel-cards, Albaclone anti-A ([3]; Day 43, Alsevers): w+
Agglutination, Diamed gel-cards, Albaclone anti-A ([3]; Day 43, Cellstab): 0
Agglutination, Diamed gel-cards, Albaclone anti-A ([3]; Day 50, Alsevers): w+
Agglutination, Diamed gel-cards, Albaclone anti-A ([3]; Day 50, Cellstab): 0
Agglutination, Diamed gel-cards, Albaclone anti-A ([3]; Day 57, Cellstab): 0
Agglutination, Diamed gel-cards, Bioclone anti-A ([3]; Day 57, Cellstab): w+
Agglutination, Diamed gel-cards, Albaclone anti-A ([3]; Day 63, Cellstab): 0
Agglutination, Diamed gel-cards, Bioclone anti-A ([3]; Day 63, Cellstab): 0
Agglutination, Diamed gel-cards, Albaclone anti-A ([3]; Day 71, Cellstab): 0
Agglutination, Diamed gel-cards, Bioclone anti-A ([3]; Day 71, Cellstab): 0
Agglutination, Diamed gel-cards, Albaclone anti-A ([3]; Day 86, Cellstab): 0
Agglutination, Diamed gel-cards, Bioclone anti-A ([3]; Day 86, Cellstab): 0
Average number of endometrial cells attached to modified embryos ([4]; embryos modified with BioG-Avidin-BioIgG^B): 2.3
Average number of endometrial cells attached to modified embryos ([4]; embryos modified with BioG-Avidin-BioIgM^A): 7.25
